Patent US4716228A, “Condensed 2-substituted thiazole derivatives” (Farmitalia Carlo Erba S.p.A., priority 1985, dated 1987)

Assays:
[1] = tested on: acetyl salicylic acid (ASA) induced gastric ulcers; assay: inhibition of acetyl salicylic acid (ASA) induced gastric ulcers in rats; format: in vivo; conditions: po; rat, p.o.; read-out: ASA Test ED50
Protocol: The activity of these compounds was assessed in rats in anti-ulcer and anti-secretory tests. The anti-ulcerogenic activity of the compounds of the invention is shown, for example, by the fact that they are active in the test of the inhibition of acetyl salicylic acid (ASA) induced gastric ulcers in rats (M. Hemmati et al., Pharmacology, 9, 374, 1973).

stress ulcers = assay: inhibition of stress ulcers in rats (restraint in water at 23° C. for 4 hours); format: in vivo; conditions: po, rat, p.o., read-out: Stress Test ED50
Protocol: The anti-ulcerogenic activity of the compounds of the invention is shown also by the fact that they are active in the test of the inhibition of stress ulcers in rats (restraint in water at 23° C. for 4 hours), according to the method of M. Usardi et al. (Prostaglandins, 8, 43, 1974).

[2] = tested on: duodenal ulcers, induced by cysteamine; assay: inhibition of duodenal ulcers induced in rats by cysteamine; format: in vivo; conditions: po; rat, p.o.; inhibition of ulcer index; read-out: Cysteamine Test ED50
Protocol: The inhibition of duodenal ulcers, induced in rats by cysteamine, was evaluated for the test of compounds as percentage inhibition of ucler index [sum of the lesioned areas per rat (mm^2)] according to the method of Fuji Y. et at, Jap. J. Pharm. 25, 663, 1975.

gastric secretion = assay: gastric anti-secretory activity, pylorus ligature technique; format: in vivo, rats; conditions: rat, i.d., read-out: Antisecretory activ. test ED50
Protocol: The gastric anti-secretory activity of the compounds of the invention was evaluated in rats by the pylorus ligature technique (H. Shay et al., Gastroenterology 5, 43, 1945).

histamine H2-receptor = histamine H2-receptor antagonist activity in vitro on the guinea pig right atrium; format: cell-based; conditions: screening dose 1.10^-5 M
Protocol: The compounds of the invention were assayed for histamine H2 -receptor antagonist activity in vitro on the guinea pig right atrium. Male guinea pigs were killed by a blow on the head and the heart was quickly excised and placed in oxygenated Ringer Locke solution of the following composition (g/l): NaCl 9, KCl 0.42, CaCl2 0.24, NaHCO3 0.5, Glucose 1. Atria were dissected away from the rest of the heart, freed from connective tissue, suspended in 20 ml organ bath containing Ringer Locke solution thermoregulated at 37° C., and carboxygenated with 95% O2 and 5% CO2. Atria spontaneously beating were allowed to adjust to the bath conditions for at least 30 minutes prior to the experiment. Histamine was added to the bath in cumulative fashion starting from 3×10^-7 M till 1×10^-4 M. The histamine-induced increase in atrial rate was allowed to plateau before the next successive concentration was added. After washing and waiting for the recovery of atria rate, compounds were added 5 minutes before repeating the cumulative dose response curve with histamine.
A compound is considered an H2 -receptor antagonist if it is able to shift the dose response curve of histamine to the right of the concentration <1×10^-5 M.

## CC(C)NC(=O)N1CCc2nc(N=C(N)N)sc2C1 [Example 1, 2-Guanidino-5-isopropylcarbamoyl-4,5,6,7-teteahydrothiazolo-[5,4-c]pyridine]
[1]
  ED50: 0.017 mg/kg
Stress ulcers
  ED50: 2.9 mg/kg
[2]
  ED50: 0.4 mg/kg
Gastric secretion
  ED50: 0.33 mg/kg
Histamine H2-receptor
  Anti-H2 activity test: active
